According to paper PMC8490515, “Neuromedin B receptor stimulation of Cav3.2 T-type Ca^2+ channels in primary sensory neurons mediates peripheral pain hypersensitivity” (Theranostics, 2021):
Ends that are not written are not given here.

How the values were obtained:
[1] = tested on: T-type channels in small TG neurons; test: Whole-cell patch clamp of T-type channel currents (IT) in small TG neurons; format: cell-based, mouse; conditions: for inhibition of IT: 0.5 mM
small TG neurons = test: TG neuronal excitability (action potential firing, rheobase, threshold); format: cell-based, mouse
Procedure: All the procedures performed in this study were carried out in accordance with NIH guidelines and were approved by the Institutional Animal Care and Use Committee of Soochow University. TG neurons were dissociated as previously described, [23]. Briefly, TGs were harvested from 8- to 10-week-old ICR mice of either sex, cut into small pieces and treated with 2 mg/mL collagenase D (Roche) for 20 min followed by 1.5 mg/mL trypsin (Sigma) at 37 °C for 15 min. Cells were dissociated via gentle trituration with fire-polished sterilized Pasteur pipettes and centrifuged through a 15% BSA gradient to remove debris and nonneuronal cells. TG neurons were resuspended in neurobasal A (Thermo Fisher) supplemented with B27 (Thermo Fisher) and transferred onto Matrigel-coated coverslips. Patch clamp recordings were conducted 2 to 6 h after plating. In shRNA-treated knockdown experiments, TG cells were replated onto coverslips 48 h after infection.
(§1) Standard whole-cell recordings were made at room temperature (22-23 °C) as described previously, [25]. Recording electrodes were pulled from borosilicate glass microcapillary tubes (Sutter Instruments) and had resistances from 3 to 5 MΩ when filled with internal solution. Recordings were obtained using a MultiClamp 700B amplifier (Axon Instruments). Data were digitized on a personal computer using a Digidata 1440 interface under the control of the pClamp10.2 acquisition package (Molecular Devices). Data were acquired at 20 kHz with a low-pass Bessel filter at 2-5 kHz. Series resistance was compensated to 80%. The internal solution used for T-type channel current recordings contained 110 mM CsCl, 4 mM Mg-ATP, 0.3 mM Na2-GTP, 25 mM HEPES, and 10 mM EGTA, adjusted to pH 7.4 with CsOH; 295 mOsm. The external solution used for T-type channel current recordings contained 5 mM BaCl2, 140 mM TEA-Cl, 10 mM HEPES, 0.5 mM MgCl2, 5 mM CsCl, and 5.5 mM glucose, adjusted to pH 7.35 with TEA-OH; 305 mOsm. In experiments for Kv current recordings, the extracellular solution contained 140 mM choline-Cl, 1 mM MgCl2, 0.03 mM CaCl2, 5 mM KCl, 10 mM HEPES, and 10 mM glucose, adjusted to pH 7.4 with KOH; 310 mOsm. The intracellular pipette solution contained 140 mM KCl, 1 mM MgCl2, 0.5 mM CaCl2, 3 mM Mg-ATP, 0.3 mM Na2-GTP, 10 mM HEPES, and 5 mM EGTA, adjusted to pH 7.4 with KOH; 295 mOsm. The two kinetically distinct Kv currents in small TG neurons were separated by the two-step voltage protocol as previously described, [26]. The external solution for Nav current clamp recordings contained 2 mM KCl, 2 mM MgCl2, 25 mM HEPES, 2 mM CaCl2, 128 mM NaCl, and 30 mM glucose, adjusted to pH 7.4 with NaOH; 305 mOsm. The internal solution contained 10 mM NaCl, 110 mM KCl, 4 mM Mg-ATP, 0.3 mM Na2-GTP, 25 mM HEPES, and 2 mM EGTA, adjusted to pH 7.3 with KOH; 295 mOsm. Nmb was applied to a patched cell by an air-pressure microinjector (Pneumatic PicoPump, model PV830, WPI).
We next determined the role of the Nmb-induced T-type channel response in regulating TG neuronal excitability. […] Furthermore, application of Nmb (100 nM) to TG neurons decreased the peak amplitude of the transient outward K^+ channel currents (A-type currents or IA) (decrease of 22.3 ± 3.9%; Figure 6C), while the sustained delayed rectifier K^+ channel currents (IDR) remained unaffected (decrease of 1.9 ± 1.6%; Figure 6C). […] To further test this hypothesis, a shorter (1 ms) current injection was applied to avoid contaminating the action potential waveform with the stimulus. Neurons were manually hyperpolarized to membrane potentials of -75 mV to maximize the number of T-type channels available for activation. With increasingly stronger current injections (+200 pA), the threshold current necessary to evoke an overshooting AP was determined for each neuron in the presence or absence of Nmb.

T-type channels = conditions: cited from earlier work; for IT inhibition: dopamine in retinal horizontal cells, adrenaline in newt olfactory receptor cells, prevented by PKA inhibitors, ref [56]; for current density of IT: via PKC, insulin-like growth factor in dorsal root ganglion neurons, angiotensin-II in neonatal cardiomyocytes, ref [28], [60]
Source text: In contrast, stimulation of PKC either by insulin-like growth factor in dorsal root ganglion neurons or by angiote ...

Cav3.2 (α1H) = test: Cav3.2 channel currents in HEK293 cells coexpressing NmbR; format: cell-based, human
Procedure: as §1, with “mOsm.” for “mOsm. The two kinetically distinct Kv currents in small TG neurons were separated by the two-step voltage protocol as previously described, [26]. The external solution for Nav current clamp recordings contained 2 mM KCl, 2 mM MgCl2, 25 mM HEPES, 2 mM CaCl2, 128 mM NaCl, and 30 mM glucose, adjusted to pH 7.4 with NaOH; 305 mOsm. The internal solution contained 10 mM NaCl, 110 mM KCl, 4 mM Mg-ATP, 0.3 mM Na2-GTP, 25 mM HEPES, and 2 mM EGTA, adjusted to pH 7.3 with KOH; 295 mOsm. Nmb was applied to a patched cell by an air-pressure microinjector (Pneumatic PicoPump, model PV830, WPI).”

PKA = PKA activity assay in TG cells (Pep Tag); format: cell-based, mouse; conditions: pretreatment 10 µM compound C, 100 nM Nmb 30 min
Procedure: PKA enzymatic activity in cell lysates was measured using the Pep Tag assay for nonradioactive detection of PKA (Promega, Madison, WI, USA) as described in our previous studies. Briefly, TG cells were cultured in 12-well plates and preincubated with BIM23042 (0.5 μM) or compound C (10 μM) followed by exposure to 100 nM Nmb for 30 min. TG cells were washed with ice-cold phosphate-buffered saline and placed on ice. PKA was extracted from the cell lysates with cold PKA extraction buffer (25 mM Tris-HCl, pH 7.4, 0.5 mM EDTA, 0.5 mM EGTA, 10 mM β-mercaptoethanol, 1 μg/mL leupeptin and 1 μg/mL aprotinin). The assay was conducted according to the manufacturer's instructions.

Which “Nmb-induced increase in IT with GDP-β-S” value ([1]; 1 mM intracellular GDP-β-S, 100 nM Nmb, n = 6) does the source give for Nc1nc2c(ncn2[C@@H]2O[C@H](COP(=O)(O)OP(O)(O)=S)[C@@H](O)[C@H]2O)c(=O)[nH]1 [GDP-β-S] here?
The value was 2.3 ± 2.7%.

Which “effect on Nmb-induced decrease in AP threshold” value (small TG neurons; preincubation 50 µM NiCl2, 100 nM Nmb, n = 9) does the source give for [Cl][Ni][Cl] [NiCl2] here?
The value was “completely prevented”.

And the “effect on Nmb-mediated increase in AP firing rate / hyperexcitability” value (small TG neurons; pretreatment KT-5720 1 µM (n = 12) or NiCl2 50 μM (n = 11), 100 nM Nmb)?
The value was “completely abolish”.

What about the “decrease of the remaining inward current (IT)” value ([1]; 50 μM, -110 mV Vh to -40 mV, 22-23 °C, n = 5) of the same molecule?
Its value is 79.2%.

What about the “inhibition of IT at the end of recording after Nmb” value ([1]; 0.5 mM NiCl2 added at end of recording after 100 nM Nmb) of the same molecule?
Its value is “almost abrogated the IT”.

What about the “inhibition of IT” value ([1]; n = 5) of the same molecule?
The value was “almost completely abolished”.

What about the “inhibition of IT” value ([1]; n = 5, listed as Ni^2+) of the same molecule?
The value was “completely blocked IT”.

With CCCCCCCCCCCCCC(=O)O[C@@H]1[C@@H](C)[C@@]2(O)[C@@H](C=C(CO)C[C@]3(O)C(=O)C(C)=C[C@@H]23)[C@@H]2C(C)(C)[C@]12OC(C)=O [PMA, phorbol 12-myristate 13-acetate] as the molecule, how does the “effect of PMA on IT” value ([1]; 5 μM, n = 7) read?
The value was “increase in IT”.

Which “Nmb-induced increase in IT after U73122” value ([1]; pretreatment 3 μM U73122 (legend: 1 μM), 100 nM Nmb, n = 8) does the source give for COc1ccc2c(c1)CC[C@@H]1[C@@H]2CC[C@]2(C)[C@@H](NCCCCCCN3C(=O)C=CC3=O)CC[C@@H]12 [U73122] here?
The value was 31.8 ± 4.2%.

With CNC[C@H](O)c1ccc(O)c(O)c1 [adrenaline] as the molecule, how does the IT inhibition (T-type channels) read?
Its IT inhibition is “IT inhibition”.

For c1cc(-c2cnn3cc(-c4ccc(OCCN5CCCCC5)cc4)cnc23)ccn1 [compound C], which “Nmb-induced increase of Cav3.2 currents after compound C” value (Cav3.2 (α1H); pretreatment 10 µM compound C, 100 nM Nmb, n = 8) is on record?
Its value is 1.4 ± 2.9%.

And the “Nmb-induced increase in IT after compound C” value ([1]; preincubation 10 µM compound C, 100 nM Nmb, n = 7)?
Its value is 2.6 ± 2.8%.

And the “effect on Nmb-induced increase in PKA activity” value (PKA)?
Its value is “abrogated”.

With NCCc1ccc(O)c(O)c1 [dopamine] as the molecule, how does the IT inhibition (T-type channels) read?
The IT inhibition was “IT inhibition”.

For C=C[C@@]1(C)CC(=O)[C@]2(O)[C@@]3(C)[C@@H](O)CCC(C)(C)[C@@H]3[C@H](O)[C@H](OC(C)=O)[C@@]2(C)O1 [forskolin], which “increase of IT by forskolin” value ([1]; 10 μM, n = 7) is on record?
Its value is 38.3 ± 2.1%.

Which “Nmb-induced increase of Cav3.2 currents with PKC 19-36” value (Cav3.2 (α1H); dialysis 10 μM PKC 19-36, 100 nM Nmb, n = 9) does the source give for “PKC 19-36: a pseudosubstrate peptide inhibitor of PKC (RFARKGALRQKNVHEVKD; UniProt P17252 19-36, looked up, fragment)” here?
The value was 30.8 ± 2.3%.

What about the “effect on PMA-induced increase in IT” value ([1]; 10 μM PKC 19-36, 5 μM PMA, n = 5) of the same molecule?
Its value is “abrogated the increase in IT”.

And the “Nmb-induced increase in IT with PKC 19-36” value ([1]; dialysis 10 µM PKC 19-36, 100 nM Nmb, n = 7)?
The value was 31.5 ± 3.5%.

With “QEHAQEPERQYMHIGTMVEFAYALVGK [Gβγ antagonist QEHA peptide]” as the molecule, how does the “Nmb-induced increase in IT with QEHA” value ([1]; dialysis 10 μM QEHA, 100 nM Nmb, n = 6) read?
The value was 3.2 ± 2.5%.

With “SKEEKSDKER WQHLADLADFALAMKDT [the scrambled peptide of QEHA]” as the molecule, how does the “Nmb-induced increase in IT with SKEE” value ([1]; intracellular 10 μM SKEE, 100 nM Nmb, n = 7) read?
The value was 33.2 ± 3.5%.

With “angiotensin-II: angiotensin-II in neonatal cardiomyocytes (DRVYIHPF; Angiotensin-2; UniProt P01019 25-32, looked up)” as the molecule, how does the “current density of IT” value (T-type channels) read?
Its value is “significantly increases the current density”.

Which “Nmb-induced increase in IT after cholera toxin (Gs)” value [1] does the source give for cholera toxin here?
Its value is 33.5 ± 2.9%.

With “corticotrophin-releasing factor: T-type channel inhibition induced by corticotrophin-releasing factor (SEEPPISLDLTFHLLREVLEMARAEQLAQQAHSNRKLMEII; ends and bridges not checked; UniProt P06850 154-194, looked up)” as the molecule, how does the T-type channel inhibition (T-type channels; MN9D dopaminergic cells, prevented by PKC inhibitors, ref [59]) read?
The T-type channel inhibition was “T-type channel inhibition”.

With insulin-like growth factor as the molecule, how does the “current density of IT” value (T-type channels) read?
The value was “significantly increases the current density”.
